This note sets out measurements from patent publication US9811635B2, “Immune and oxygen system measuring and drug screening method and apparatus” (priority 2010, dated 2017).

The subject of one data set is bovine blood standard. The format is cell-based. An excerpt:
(§1) First, a testing apparatus having a sample well 10 or cell with a sensor or probe 20 and a reader/processor 30 is provided. […] The testing probes are inserted into the cell and the testing apparatus is calibrated so that the reading for levels of signaling materials is at zero. For example, a compound A, such as signaling material-free saline solution can be added to cell E derive an instrument baseline reading free of signaling material. Alternatively, a gas that is free of signaling material can be bubbled into the cell.
An initial reading is made of the levels of signaling materials in the sample prior to any stress being imposed. The mixture of compound A and blood D is then exposed to an initial stress B. A suitable stress would be physical shear stress produced by the administering syringe and/or a rotating magnetic stirrer. The sensor within the cell E then determines a drop in concentration of signaling materials, which is presumably brought on by the addition of stress B. Generally, this drop in signaling materials concentration yields the value of BOX, which is correlated to the ability of the system to incorporate signaling materials for transport. […]
The other sensor 24 or probe may be an optical fluorescence dissolved oxygen analyzer, such as an Ocean Optics ruthenium-coated fiber optical light emitting diode (LED) probe, and can also include other suitable light based devices, including a laser (hereinafter referred to collectively as an “optical sensor”), which determines an amount of value for O2 and the bundled O2 reservoir (ROXO2). […]
Between these two or more sensors, therefore, the testing provides a reading for O2, NO, ROXO2, and NO that is in a bundled reservoir (ROXNO), as shown in FIGS. 6 and 7. […] Thus, the readings from the membrane probe and the optical probe together provide a total concentration of BOX and ROX (ROXO2+ROXNO) in the sample after exposure to physical stress B. Also, the slopes of the curves in FIGS. 6 and 7 yield valuable information with respect to the rates of reaction of these components. […]

The subject of another data set is human blood. Kind of data set: Immunogram Analyzer run: effect of borate and aspirin on ROX/BOX of human blood. The format is cell-based. The conditions noted are these: for effect on ROX and BOX: compared to saline runs on a patient's blood; for BOX / ROX / ROXNO / ROXO2: human blood aged 5 days at room temperature, 0.10 ml blood, 0.9 ml saline.
Excerpt: as §1
Once a baseline showing a zero reading for signaling materials is established, an amount of blood D is added to cell E. This amount of blood D can be a small quantity, such as between about 0.02 mL and about 0.10 mL, of freshly drawn or frozen blood from a test individual or patient. For convenience, a 3.00 mL sample of anticoagulated blood may be frozen for later analysis. Very small samples of blood, such as less than about 0.02 mL, may also be analyzed.
An initial reading is made of the levels of signaling materials in the sample prior to any stress being imposed. The mixture of compound A and blood D is then exposed to an initial stress B. A suitable stress would be physical shear stress produced by the administering syringe and/or a rotating magnetic stirrer. The sensor within the cell E then determines a drop in concentration of signaling materials, which is presumably brought on by the addition of stress B. Generally, this drop in signaling materials concentration yields the value of BOX, which is correlated to the ability of the system to incorporate signaling materials for transport. Following this drop, any rise in concentration of signaling materials yields the value of ROX, which correlates to the capacity of the system to provide a reservoir of signaling materials.
The sensor of the testing apparatus preferably includes two or more sensors—one may be a membrane-based oxygen electrode 22, such as a polarographic Clark oxygen electrode, which measures O2, NO, H2S and other signaling materials that are unbound and can thus permeate through the membrane. In polarographic sensors, an anode, which is polarized, and a cathode are immersed in an electrolyte, into which oxygen and other signaling materials, permeates through the membrane. The anode/cathode pair causes current to flow in direct proportion to the amount of signaling material, such as oxygen, entering the system. The magnitude of the current thus directly correlates to the amount of signaling material entering the probe or sensor. It would be apparent that a membrane-based sensor necessarily depletes the sample of the material being tested as a result of consumption, yet the level of material consumed by the sensor is considered herein to be of an order of magnitude as to be insignificant for practical purposes.
The other sensor 24 or probe may be an optical fluorescence dissolved oxygen analyzer, such as an Ocean Optics ruthenium-coated fiber optical light emitting diode (LED) probe, and can also include other suitable light based devices, including a laser (hereinafter referred to collectively as an “optical sensor”), which determines an amount of value for O2 and the bundled O2 reservoir (ROXO2). Other sensors, such as chip-based sensors, may also be used on the basis of price, convenience, and sensitivity to new signaling and reactive substances.
As used herein, “ROXO2” is determinable O2 reservoir, and “ROXNO” is determinable NO reservoir. When bundled by the blood, and, in particular, the white blood cells, which are preparing signaling materials for use by the body, ROXO2 and ROXNO are unable to travel through the membrane sensor. However, after a BOX event occurs, increased levels of signaling materials in the sample, as determined by either the membrane or optical sensor, which tend to track each other, yield amounts of ROXO2 and ROXNO. […]

For acid-citrate-dextrose [ACD], in the data set with bovine blood standard, the “Increases ROXO2 by” value came out at 10%, the “Lowers BOX by” value is on record as “Lowers BOX by 8%” and the “Lowers ROXNO by” value is 25%.

borate: in the data set on human blood, the “effect on ROX and BOX” value was “increases of BOX and ROX”; the BOX is on record as 41% of air saturation; the ROX was 79% of air saturation; the ROXNO is recorded as 31% of air saturation. Moreover, in the data set with human blood, the ROXO2 is reported as 27% of air saturation. In addition, in the data set on human blood (listed as borate eye wash), the “effect on ROX and BOX” value was “affect ROX and BOX”.

As for `CC(=O)Oc1ccccc1C(=O)O` [Aspirin, aspirin], in the data set on human blood, the “effect on ROX and BOX” value was “affect ROX and BOX”; the BOX was 35% of air saturation; the ROX is 74% of air saturation; the ROXNO was 34% of air saturation. Further, the ROXO2 in the data set with human blood is 29% of air saturation. In the data set with human blood (final run of FIG. 6, human blood), the “release of NO” value was “very rapid releases of NO”. The “rise of NO” value in the data set on human blood (in 2 seconds, human blood) was “a 37% rise”.
